Where two headings read alike, the source gives them in different places.
Assays:
[1] = test system: anti-peptide antibodies in serum; format: binding, human; design: key to Anti-peptide antibody response: +, Positive (titer above control); −, Negative (titer below control)
[2] = test system: anti-peptide antibodies in serum; format: binding, chimpanzee; design: key: +, Positive (Titer > 1:100); −, Negative (Titer < 1:100)
[3] = test system: PBMCs from normal and HIV-positive individuals; format: cell-based, human; settings: for number of HIV+ individuals with positive proliferative responses: 17 HIV+ individuals tested
[4] = test system: PBMCs from control and HIV-1 infected chimpanzees; format: cell-based, chimpanzee

CRIKQIINMWQGVGKAMYA [Peptide 122]
number of HIV+ individuals with positive antibody titers (<1:1280) [1]: None | Anti-peptide antibody response ([1]; HIV-positive patient MSf): − | Anti-peptide antibody response ([1]; HIV-positive patient MSm): − | Anti-peptide antibody response ([1]; HIV-positive patient eight): − | Anti-peptide antibody response ([1]; HIV-positive patient eleven): − | Anti-peptide antibody response ([1]; HIV-positive patient fifteen): − | Anti-peptide antibody response ([1]; HIV-positive patient five): − | Anti-peptide antibody response ([1]; HIV-positive patient four): − | Anti-peptide antibody response ([1]; HIV-positive patient fourteen): − | Anti-peptide antibody response ([1]; HIV-positive patient nine): − | Anti-peptide antibody response ([1]; HIV-positive patient one): − | Anti-peptide antibody response ([1]; HIV-positive patient seven): − | Anti-peptide antibody response ([1]; HIV-positive patient six): − | Anti-peptide antibody response ([1]; HIV-positive patient ten): − | Anti-peptide antibody response ([1]; HIV-positive patient thirteen): − | Anti-peptide antibody response ([1]; HIV-positive patient three): − | Anti-peptide antibody response ([1]; HIV-positive patient twelve): − | Anti-peptide antibody response ([1]; HIV-positive patient two): − | Anti-peptide antibody response ([1]; Normal-1 (HIV-seronegative)): − | Anti-peptide antibody response ([1]; Normal-2 (HIV-seronegative)): − | Anti-peptide antibody response [2]: − | Anti-peptide antibody response ([2]; chimpanzee 40, control normal): − | Anti-peptide antibody response ([2]; chimpanzee 73, control normal): − | number of HIV+ individuals with positive proliferative responses [3]: seven | T-cell proliferative response ([3]; HIV-positive patient MSf): − (−, Negative (SI < 2.0)) | T-cell proliferative response ([3]; HIV-positive patient MSm): − (−, Negative (SI < 2.0)) | T-cell proliferative response ([3]; HIV-positive patient eight): − (−, Negative (SI < 2.0)) | T-cell proliferative response ([3]; HIV-positive patient eleven): − (−, Negative (SI < 2.0)) | T-cell proliferative response ([3]; HIV-positive patient fifteen): + (+, Positive (Stimulation Index [SI] > 2.0)) | T-cell proliferative response ([3]; HIV-positive patient five): − (−, Negative (SI < 2.0)) | T-cell proliferative response ([3]; HIV-positive patient four): − (−, Negative (SI < 2.0)) | T-cell proliferative response ([3]; HIV-positive patient fourteen): + (+, Positive (Stimulation Index [SI] > 2.0)) | T-cell proliferative response ([3]; HIV-positive patient nine): + (+, Positive (Stimulation Index [SI] > 2.0)) | T-cell proliferative response ([3]; HIV-positive patient one): + (+, Positive (Stimulation Index [SI] > 2.0)) | T-cell proliferative response ([3]; HIV-positive patient seven): − (−, Negative (SI < 2.0)) | T-cell proliferative response ([3]; HIV-positive patient six): − (−, Negative (SI < 2.0)) | T-cell proliferative response ([3]; HIV-positive patient ten): + (+, Positive (Stimulation Index [SI] > 2.0)) | T-cell proliferative response ([3]; HIV-positive patient thirteen): − (−, Negative (SI < 2.0)) | T-cell proliferative response ([3]; HIV-positive patient three): + (+, Positive (Stimulation Index [SI] > 2.0)) | T-cell proliferative response ([3]; HIV-positive patient twelve): + (+, Positive (Stimulation Index [SI] > 2.0)) | T-cell proliferative response ([3]; HIV-positive patient two): − (−, Negative (SI < 2.0)) | T-cell proliferative response ([3]; Normal-1 (HIV-seronegative)): − (−, Negative (SI < 2.0)) | T-cell proliferative response ([3]; Normal-2 (HIV-seronegative)): − (−, Negative (SI < 2.0)) | T-cell proliferative response ([4]; chimpanzee 40, control normal): − (−, Negative (SI < 2.0)) | T-cell proliferative response ([4]; chimpanzee 62, HIV-infected): − (−, Negative (SI < 2.0)) | T-cell proliferative response ([4]; chimpanzee 69, HIV-infected): + (+, Positive (Stimulation Index [SI] > 2.0)) | T-cell proliferative response ([4]; chimpanzee 73, control normal): − (−, Negative (SI < 2.0)) | T-cell proliferative response ([4]; chimpanzee 80, HIV-infected): + (+, Positive (Stimulation Index [SI] > 2.0)) | T-cell proliferative response ([4]; chimpanzee 99, HIV-infected): − (−, Negative (SI < 2.0)) | T-cell proliferative response ([4]; chimpanzee 100, HIV-infected): + (+, Positive (Stimulation Index [SI] > 2.0)) | T-cell proliferative response ([4]; chimpanzee 139, HIV-infected): − (−, Negative (SI < 2.0)) | T-cell proliferative response ([4]; chimpanzee 175, HIV-infected): + (+, Positive (Stimulation Index [SI] > 2.0)) | T-cell proliferative response ([4]; chimpanzee 247, HIV-infected): − (−, Negative (SI < 2.0)) | T-cell proliferative response ([4]; chimpanzee 310, HIV-infected): − (−, Negative (SI < 2.0))

STRTPEDSNSLGT [c-mos peptide, reference compound]
Anti-peptide antibody response ([1]; HIV-positive patient MSf): − | Anti-peptide antibody response ([1]; HIV-positive patient MSm): − | Anti-peptide antibody response ([1]; HIV-positive patient eight): − | Anti-peptide antibody response ([1]; HIV-positive patient eleven): − | Anti-peptide antibody response ([1]; HIV-positive patient fifteen): − | Anti-peptide antibody response ([1]; HIV-positive patient five): − | Anti-peptide antibody response ([1]; HIV-positive patient four): − | Anti-peptide antibody response ([1]; HIV-positive patient fourteen): − | Anti-peptide antibody response ([1]; HIV-positive patient nine): − | Anti-peptide antibody response ([1]; HIV-positive patient one): − | Anti-peptide antibody response ([1]; HIV-positive patient seven): − | Anti-peptide antibody response ([1]; HIV-positive patient six): − | Anti-peptide antibody response ([1]; HIV-positive patient ten): − | Anti-peptide antibody response ([1]; HIV-positive patient thirteen): − | Anti-peptide antibody response ([1]; HIV-positive patient three): − | Anti-peptide antibody response ([1]; HIV-positive patient twelve): − | Anti-peptide antibody response ([1]; HIV-positive patient two): − | Anti-peptide antibody response ([1]; Normal-1 (HIV-seronegative)): − | Anti-peptide antibody response ([1]; Normal-2 (HIV-seronegative)): − | Anti-peptide antibody response [2]: − | Anti-peptide antibody response ([2]; chimpanzee 40, control normal): − | Anti-peptide antibody response ([2]; chimpanzee 73, control normal): − | number of HIV+ individuals with positive proliferative responses [3]: None | number of HIV+ individuals with positive proliferative responses ([3]; listed as control peptide): none | T-cell proliferative response ([3]; HIV-positive patient MSf): − (−, Negative (SI < 2.0)) | T-cell proliferative response ([3]; HIV-positive patient MSm): − (−, Negative (SI < 2.0)) | T-cell proliferative response ([3]; HIV-positive patient eight): − (−, Negative (SI < 2.0)) | T-cell proliferative response ([3]; HIV-positive patient eleven): − (−, Negative (SI < 2.0)) | T-cell proliferative response ([3]; HIV-positive patient fifteen): − (−, Negative (SI < 2.0)) | T-cell proliferative response ([3]; HIV-positive patient five): − (−, Negative (SI < 2.0)) | T-cell proliferative response ([3]; HIV-positive patient four): − (−, Negative (SI < 2.0)) | T-cell proliferative response ([3]; HIV-positive patient fourteen): − (−, Negative (SI < 2.0)) | T-cell proliferative response ([3]; HIV-positive patient nine): − (−, Negative (SI < 2.0)) | T-cell proliferative response ([3]; HIV-positive patient one): − (−, Negative (SI < 2.0)) | T-cell proliferative response ([3]; HIV-positive patient seven): − (−, Negative (SI < 2.0)) | T-cell proliferative response ([3]; HIV-positive patient six): − (−, Negative (SI < 2.0)) | T-cell proliferative response ([3]; HIV-positive patient ten): − (−, Negative (SI < 2.0)) | T-cell proliferative response ([3]; HIV-positive patient thirteen): − (−, Negative (SI < 2.0)) | T-cell proliferative response ([3]; HIV-positive patient three): − (−, Negative (SI < 2.0)) | T-cell proliferative response ([3]; HIV-positive patient twelve): − (−, Negative (SI < 2.0)) | T-cell proliferative response ([3]; HIV-positive patient two): − (−, Negative (SI < 2.0)) | T-cell proliferative response ([3]; Normal-1 (HIV-seronegative)): − (−, Negative (SI < 2.0)) | T-cell proliferative response ([3]; Normal-2 (HIV-seronegative)): − (−, Negative (SI < 2.0)) | T-cell proliferative response ([4]; chimpanzee 40, control normal): − (−, Negative (SI < 2.0)) | T-cell proliferative response ([4]; chimpanzee 62, HIV-infected): − (−, Negative (SI < 2.0)) | T-cell proliferative response ([4]; chimpanzee 69, HIV-infected): − (−, Negative (SI < 2.0)) | T-cell proliferative response ([4]; chimpanzee 73, control normal): − (−, Negative (SI < 2.0)) | T-cell proliferative response ([4]; chimpanzee 80, HIV-infected): − (−, Negative (SI < 2.0)) | T-cell proliferative response ([4]; chimpanzee 99, HIV-infected): − (−, Negative (SI < 2.0)) | T-cell proliferative response ([4]; chimpanzee 100, HIV-infected): − (−, Negative (SI < 2.0)) | T-cell proliferative response ([4]; chimpanzee 139, HIV-infected): − (−, Negative (SI < 2.0)) | SI, background level of proliferation ([4]; chimpanzee 175): 2.7 | T-cell proliferative response ([4]; chimpanzee 175, HIV-infected): + (+, Positive (Stimulation Index [SI] > 2.0)) | T-cell proliferative response ([4]; chimpanzee 247, HIV-infected): − (−, Negative (SI < 2.0)) | T-cell proliferative response ([4]; chimpanzee 310, HIV-infected): − (−, Negative (SI < 2.0))

Reference: patent publication US7306804B2 (priority 1998, dated 2007)
